Numbers after ± are expanded uncertainties.
Assay: molar enthalpy of vaporization or sublimation
Settings: Calvet microcalorimetry

| Compound | molar enthalpy (298.15 K, Liquid) [kcal/mol] | molar enthalpy (329.2 K, Liquid) [kcal/mol] | molar enthalpy (298.15 K, Crystal) [kcal/mol] |
| --- | --- | --- | --- |
| Oc1ccccc1Br [phenol, 2-bromo-] | 13.3 ± 0.621 | 13.3 ± 0.621 | – |
| Oc1ccc(Br)cc1 [4-bromophenol] | – | – | 19.9 ± 0.765 |

From the NIST ThermoML archive (doi:10.1016/j.jct.2009.04.017)
